What follows are molecules tested against T1, human cGAS (residues 161-522) (Homo sapiens, UniProt Q8N884) (assay: cGAS Activity Assay—Malachite Green). Conditions: recombinant purified human cGAS 25 nM; 80 μM ATP, 80 μM GTP, 100 nM ISD; 4 hour at RT; phosphate detection by Malachite Green.
T1 construct: human cGAS (residues 161-522); made in house
Type: biochemical
Method in brief: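 Human cGAS (161-522, 25 nM) in 20 mM TRIS pH 7.5, 5 mM MgCl2, 0.01% BSA with 80 μM ATP, 80 μM GTP and 100 nM ISD DNA, 4 h at RT. Pyrophosphate converted by PPase, phosphate read with Malachite Green at 620 nm; IC50 from 4-parameter fit of 16-point series.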

T1 sequence (Q8N884 161-522): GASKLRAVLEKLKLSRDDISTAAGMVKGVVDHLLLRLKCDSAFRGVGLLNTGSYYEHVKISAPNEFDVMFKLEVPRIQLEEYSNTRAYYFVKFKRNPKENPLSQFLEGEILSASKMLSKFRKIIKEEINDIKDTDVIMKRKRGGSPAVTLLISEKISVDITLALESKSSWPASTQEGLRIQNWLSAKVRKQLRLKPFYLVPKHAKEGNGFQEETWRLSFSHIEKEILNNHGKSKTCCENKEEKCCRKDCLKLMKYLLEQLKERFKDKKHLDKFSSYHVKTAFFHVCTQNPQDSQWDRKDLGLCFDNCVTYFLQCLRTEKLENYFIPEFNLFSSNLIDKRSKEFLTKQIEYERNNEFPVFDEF

SMILES | IC50
Cc1oncc1/C(O)=C(\C#N)C(=O)Nc1ncc(C(=O)N(C)Cc2ccccc2)c(CCc2ccccc2)n1 [Example 133, (Z)-N-benzyl-2-(2-cyano-3-hydroxy-3-(5-methylisoxazol-4-yl)acrylamido)-N-methyl-4-phenethylpyrimidine-5-carboxamide] | 1330 nM
Cc1oncc1/C(O)=C(\C#N)C(=O)Nc1ncc(C(=O)N(C)c2ccccc2)c(CCc2ccccc2)n1 [Example 134, (Z)-2-(2-cyano-3-hydroxy-3-(5-methylisoxazol-4-yl)acrylamido)-N-methyl-4-phenethyl-N-phenylpyrimidine-5-carboxamide] | 1710 nM
Cc1oncc1/C(O)=C(\C#N)C(=O)Nc1ncc(C(=O)N(C)c2ccccc2)c(-c2ccccc2)n1 [Example 135, (Z)-2-(2-cyano-3-hydroxy-3-(5-methylisoxazol-4-yl)acrylamido)-N-methyl-N,4-diphenylpyrimidine-5-carboxamide] | 570 nM
Cc1oncc1/C(O)=C(\C#N)C(=O)Nc1ncc(S(C)(=O)=O)c(-c2cccc(Cl)c2)n1 [Example 136, (Z)—N-(4-(3-chlorophenyl)-5-(methylsulfonyl)pyrimidin-2-yl)-2-cyano-3-hydroxy-3-(5-methylisoxazol-4-yl)acrylamide] | 70 nM
Cc1oncc1/C(O)=C(\C#N)C(=O)Nc1ncc(S(C)(=O)=O)c(-c2cccc(F)c2)n1 [Example 137, (Z)-2-cyano-N-(4-(3-fluorophenyl)-5-(methylsulfonyl)pyrimidin-2-yl)-3-hydroxy-3-(5-methylisoxazol-4-yl)acrylamide] | 60 nM
Cc1oncc1/C(O)=C(\C#N)C(=O)Nc1ncc(S(C)(=O)=O)c(CCc2ccccc2)n1 [Example 138, (Z)-2-cyano-3-hydroxy-3-(5-methylisoxazol-4-yl)-N-(5-(methylsulfonyl)-4-phenethylpyrimidin-2-yl)acrylamide] | 200 nM

Other lines, results leading:

IC50 | SMILES
60 nM | Cc1oncc1/C(O)=C(\C#N)C(=O)Nc1ncc(S(=O)(=O)c2ccccc2)c(-c2cccc(F)c2)n1 [Example 139, (Z)-2-cyano-N-(4-(3-fluorophenyl)-5-(phenylsulfonyl)pyrimidin-2-yl)-3-hydroxy-3-(5-methylisoxazol-4-yl)acrylamide]
240 nM | Cc1oncc1/C(O)=C(\C#N)C(=O)Nc1ncc(S(C)(=O)=O)c(-c2ccccc2Cl)n1 [Example 140, (Z)-N-(4-(2-chlorophenyl)-5-(methylsulfonyl)pyrimidin-2-yl)-2-cyano-3-hydroxy-3-(5-methylisoxazol-4-yl)acrylamide]
6450 nM | CCc1oncc1/C(O)=C(\C#N)C(=O)Nc1ccc(C(F)(F)F)cc1 [Example 141, (Z)-2-cyano-3-(5-ethylisoxazol-4-yl)-3-hydroxy-N-(4-(trifluoromethyl)phenyl)acrylamide]
5190 nM | N#C/C(C(=O)Nc1ccc(C(F)(F)F)cc1)=C(/O)c1cnoc1 [Example 142, (Z)-2-cyano-3-hydroxy-3-(isoxazol-4-yl)-N-(4-(trifluoromethyl)phenyl)acrylamide]
960 nM | Cc1oncc1/C(O)=C(\C#N)C(=O)Nc1cccc(CO)c1 [Example 143, (Z)-2-Cyano-3-hydroxy-N-[3-(hydroxymethyl)phenyl]-3-(5-methylisoxazol-4-yl)prop-2-enamide]
330 nM | Cc1oncc1/C(O)=C(\C#N)C(=O)Nc1cccc(C(=O)O)c1 [Example 144, 3-[[(Z)-2-Cyano-3-hydroxy-3-(5-methylisoxazol-4-yl)prop-2-enoyl]amino]benzoic acid]
470 nM | Cc1oncc1/C(O)=C(\C#N)C(=O)Nc1ccc(CC(=O)O)cc1 [Example 145, 2-[4-[[(Z)-2-Cyano-3-hydroxy-3-(5-methylisoxazol-4-yl)prop-2-enoyl]amino]phenyl]acetic acid]

From patent US20230242494A1, “MALONITRILE DERIVATIVES” (Hoffmann-La Roche Inc., priority 2020, published 2023)
